Measurements: publication PMC12373846, “Hemoglobin as a pseudoperoxidase and drug target for oxidative stress-related diseases” (Signal Transduction and Targeted Therapy, 2025)
Like-named read-outs stand apart in the source and are kept apart here.

Legend:
Hb = target: T1, Hb (Homo sapiens, UniProt P68871); assay: ROS-Glo H2O2 assay with Hb; format: biochemical; conditions: for remaining H2O2 normalized to no Hb: Fig. 2d
T1 construct: purchased Sigma-Aldrich H7379
Method: Hb (Sigma‒Aldrich, H7379), H2O2 (Sigma‒Aldrich, H1009), and Amplex Red reagents (Invitrogen, A12222) were obtained for the study. A 4 μM H2O2 solution was prepared in 50 mM sodium phosphate buffer (pH 7.2). Then, 49 μl of this mixture was mixed with 1 μl of the test compound in DMSO or distilled water. The mixture was combined with an assay mixture of Amplex Red reagent (20 mM stock to 0.1 mM) and HRP (200 U/ml stock to 0.2 U/ml) and added to the wells at 50 μl/well. After a 60-min incubation at 37 °C, resorufin production was quantified via a microplate fluorescence reader (SpectraMax iD5, Molecular Devices) at ex/em = 535/580 nm. […] For the ROS-Glo assay, the H2O2 substrate solution and ROS-Glo detection solution were prepared according to the manufacturer’s instructions. 10 μM H2O2 and drugs were prepared as in the Amplex Red assay, with HRP, Hb, CAT, or GPx added as needed. The mixture was added to the wells at 100 μl/well and incubated for 60 min at 37 °C. H2O2 substrate solution was added, and the mixture was incubated at room temperature for 30 min. After the H2O2 substrate solution was added and incubated at room temperature for 30 min, the ROS-Glo detection solution was added, and the mixture was incubated for 15 min. Luminescence was measured via iD5 microplate readers. […] The U/ml was calculated on the basis of the amount of H2O2 reduced by Hb during the reaction, using μg/ml and U/mg.
To evaluate the extent of peroxidase function facilitation by HTPEB (1 μM) and KDS12025 (1 μM) in HRP (0.2 U/ml) and Hb (10 μg/ml), we used the ROS-Glo assay over 30 and 60 min. The fold change was calculated by dividing the delta values during the 30-min reaction for the vehicle over drug conditions.
To assess enzyme activity, the amount of H2O2 consumed over a specific time was quantified alongside a standard curve. For the peroxidase function of Hb, Hb was administered at doses ranging from 0.01 to 112 U/ml and preincubated with H2O2 and either DMSO, HTPEB (1 μM), or KDS12025 (1 μM) at 37 °C for 30 min. The remaining H2O2 was measured via the ROS-Glo assay and normalized against conditions without Hb. The dose‒response curve, EC50, and EC20 for H2O2 decomposition were calculated and determined by fitting the data with GraphPad Prism software. The fitting method had no special handling of outliers, and least squares regression with confidence intervals of the parameters was 95%.

APP/PS1 mice = assay: Immunohistochemistry of hippocampus, APP/PS1 mice; format: in vivo, mouse; conditions: 3 mg/kg/day i.p.; for mean intensity of Iba1 in the hippocampus: Fig. S10e; for mean intensity of GFAP in the hippocampus: Fig. S10d
Method: For an animal model of AD, both sexes of 10- to 18-month-old APP/PS1 mice were maintained and used as previously described.[76],[77] To test the effects of novel H2O2-decomposing enhancers in the AD model, the mice were treated by i.p. injection with KDS12008 (3 mg/kg/day), KDS12017 (3 mg/kg/day), or KDS12025 (3 or 10 mg/kg/day) once per day for 1 or 2 weeks, depending on the experimental protocol. All drugs were dissolved in 200 μl of saline, and the amount of each drug was calculated on the basis of the weight (kg) of the mouse. Moreover, KDS12025 (3 mg/kg/day) was orally administered to the AD model for 2 weeks ad libitum.
The mice were deeply anesthetized with vaporized 1% isoflurane and placed into stereotaxic frames (RWD Life Science, China). Following an incision on the midline of the scalp, a hole was drilled into the skull above the hippocampus. AAV-GFAP104-GFP or AAV-GFAP104-DTR-GFP was bilaterally microinjected into the hippocampal CA1 region (AP, −2.0 mm; ML, ±1.5 mm; DV, −1.65 mm from the bregma). Diphtheria toxin (2 mg/ml) was administered for 16 days as previously described.[77] For shRNA knockdown, AAV-pSicoR-Hbβ-shRNA-mCherry or AAV-pSicoR-Sc-shRNA-mCherry was microinjected into the same coordinate system. A total of 0.8 µl of the virus was injected via a syringe pump (KD Scientific, USA). The injection procedures were implemented before 5 weeks of the experiments. For cell type-specific knockdown, AAV-pSico-Hbβ-shRNA-GFP or AAV-pSico-Sc-shRNA-GFP was combined with either AAV-CaMKII-Cre-mCherry for neuronal targeting or AAV-GFAP-Cre-mCherry for astrocyte targeting. The viruses were bilaterally injected into the hippocampus and substantia nigra via the same stereotaxic coordinates and injection procedures. All viruses used in this study were produced at the Institute for Basic Science virus facility (IBS virus facility, Korea). To investigate the effects of 0.1 mg/kg/day KDS12025, GiD mice were injected with diphtheria toxin (2 mg/ml) daily for 16 days. Concurrently, KDS12025 was administered ad libitum (0.1 mg/kg/day) during the same period.
The mice were deeply anesthetized with 2% isoflurane and positioned on the operating table. After the abdomen was opened and the heart was exposed, the […] were perfused with saline, followed by 4% paraformaldehyde (PFA) in 0.1 M PBS. The mice were decapitated, and the brains were excised from the skull. Excised brains were postfixed in 4% PFA overnight at 4 °C and dehydrated in 30% sucrose for 48 h. Coronal hippocampal sections were cut at 30 µm thickness with a cryostat and stored in storage solution. For the ALS experiments, lumbar spinal cords (L2–L5) were also carefully dissected and immediately immersed in 4% PFA for postfixation. The sections were fully washed in 0.1 M PBS and incubated for 1 h in blocking solution (0.3% Triton X-100, 2% donkey and goat serum in 0.1 M PBS). Next, a mixture of primary antibodies in the blocking solution was used for immunostaining on a shaker overnight at 4 °C. The sections were washed in PBS three times. After washing, the sections were incubated with the corresponding fluorescent secondary antibodies for 1 h at RT. DAPI staining was performed by adding a DAPI solution (1:2000) during the second washing step. After the washing step was complete, the sections were mounted on cover slides with mounting medium. A series of fluorescence images were obtained with an LSM900 (Zeiss, Germany) confocal microscope or Lattice SIM Elyra 7 (Zeiss, Germany). The 15–22 μm Z stack images in 1–2 μm steps were processed for image analysis, which was performed via the ImageJ (NIH, US) and ZEN digital imaging for light microscopy blue system (Zeiss, Germany) programs.

[1] = Tables S2, S3, read-out: HB-EC50
[2] = in the presence of Hb, Fig. 1h, read-out: EC50 with Hb (H2O2 decomposition)

T1 sequence (P68871 2-147 limits assumed): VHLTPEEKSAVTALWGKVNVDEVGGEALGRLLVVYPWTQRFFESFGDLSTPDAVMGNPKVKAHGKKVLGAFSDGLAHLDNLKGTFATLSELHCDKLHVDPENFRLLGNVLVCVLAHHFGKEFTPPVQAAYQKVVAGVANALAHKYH
T1 sequence (P69905 2-142 partner limits assumed): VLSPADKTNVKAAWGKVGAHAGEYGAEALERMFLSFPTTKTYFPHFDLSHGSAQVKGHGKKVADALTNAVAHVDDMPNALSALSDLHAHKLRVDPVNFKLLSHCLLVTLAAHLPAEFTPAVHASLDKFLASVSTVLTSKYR

Structure (SMILES)	remaining H2O2 normalized to no Hb (Hb; Hb 0.01 U/ml)	remaining H2O2 normalized to no Hb (Hb; Hb 0.1 U/ml)	remaining H2O2 normalized to no Hb (Hb; Hb 1 U/ml)	fold change in H2O2 decomposition (Hb pseudoperoxidase activity per 0.5 h) (Hb; Hb, 30-min window, Fig. 2b) [fold]	EC50 (Hb; [1]) [nM]	EC50 (Hb; [2]) [nM]	facilitation of H2O2 decomposition by Hb (Hb; with HTPEB, Fig. 1f) [fold]	mean intensity of Iba1 in the hippocampus (APP/PS1 mice)	mean intensity of GFAP in the hippocampus (APP/PS1 mice)
O=C(O)c1cc(NCCc2ccc(C(F)(F)F)cc2)ccc1O [HTPEB, 2-hydroxy-5-[2-(4-trifluoromethyl-phenyl)-ethylamino]-benzoic acid, reference compound]	84.92±3.034	81.24±5.607	70.82±3.83	2.529±0.6645	155	150	2		
CN(C)c1ccc(NCCc2ccc(C(F)(F)F)cc2)cc1.Cl [KDS12008, N^1,N^1-dimethyl-N^4-(4-(trifluoromethyl)phenethyl)benzene-1,4-diamine hydrochloride salt]					67			1562±64.27	2063±93.76
CNc1ccc(NCCc2ccc(C(F)(F)F)cc2)cc1.Cl [KDS12017, N^1-methyl-N^4-(4-(trifluoromethyl)phenethyl)benzene-1,4-diamine hydrochloride salt]					86.2	90		1556±53.65	1711±145.9
